# Data: the supplement of paper PMC12494721
# Where a name gives a salt, the structure may show the parent alone.
# Assays:
# Conditions in all cases: incubation time: 27 h, anaerobic, 37 °C
# [1] = test system: Clostridium sporogenes DSM 1664; experiment: fold change of Tryptamine concentration vs plate DMSO controls (fold change (ratio)); higher = more amine produced
# [2] = test system: Clostridium sporogenes DSM 1664; experiment: growth (OD595) fold change vs plate DMSO controls (fold change (ratio)); higher = more growth
# Escherichia coli IAI1 [3] = experiment: fold change of Putrescine concentration vs plate DMSO controls (fold change (ratio)); higher = more amine produced
# Escherichia coli IAI1 [4] = experiment: fold change of Cadaverine concentration vs plate DMSO controls (fold change (ratio)); higher = more amine produced
# Escherichia coli IAI1 [5] = experiment: growth (OD595) fold change vs plate DMSO controls (fold change (ratio)); higher = more growth
# [6] = test system: Ruminococcus gnavus DSM 108212; experiment: fold change of Tryptamine concentration vs plate DMSO controls (fold change (ratio)); higher = more amine produced
# [7] = test system: Ruminococcus gnavus DSM 108212; experiment: fold change of 2-Phenylethylamine concentration vs plate DMSO controls (fold change (ratio)); higher = more amine produced
# [8] = test system: Ruminococcus gnavus DSM 108212; experiment: growth (OD595) fold change vs plate DMSO controls (fold change (ratio)); higher = more growth
SMILES,fold change of Tryptamine concentration ([1]; 0.6125 µM),fold change of Tryptamine concentration ([1]; 1.25 µM),fold change of Tryptamine concentration ([1]; 2.5 µM),fold change of Tryptamine concentration ([1]; 5 µM),fold change of Tryptamine concentration ([1]; 10 µM),fold change of Tryptamine concentration ([1]; 20 µM),growth ([2]; 0.6125 µM),growth ([2]; 1.25 µM),growth ([2]; 2.5 µM),growth ([2]; 5 µM),growth ([2]; 10 µM),growth ([2]; 20 µM),further results
CC(=O)NC[C@H]1CN(c2ccc(N3CCOCC3)c(F)c2)C(=O)O1 [Linezolid],0.966,0.923,0.894,0.77,0.51,0.0345,1.14,1.05,1.06,0.814,0.563,-0.0339,
COc1cccc(OC)c1C(=O)N[C@@H]1C(=O)N2[C@@H]1SC(C)(C)[C@@H]2C(=O)O [Methicillin sodium],1.02,1,1.01,0.915,0.779,0.417,0.843,0.888,0.839,0.95,0.469,0.469,
Cc1ncc([N+](=O)[O-])n1CCO [Metronidazole],0.744,0.758,0.55,0.0225,0.0206,0.0183,1.05,1.12,1.08,-0.0178,-0.0224,-0.023,
CO[C@@]12[C@H](COC(N)=O)C3=C(C(=O)C(C)=C(N)C3=O)N1C[C@@H]1N[C@@H]12 [Mitomycin C],,,,,,,,,,,,,fold change of Putrescine concentration (Escherichia coli IAI1 [3]; 0.6125 µM): 0.929; fold change of Putrescine concentration (Escherichia coli IAI1 [3]; 1.25 µM): 1.35; fold change of Putrescine concentration (Escherichia coli IAI1 [3]; 2.5 µM): 1.27; fold change of Putrescine concentration (Escherichia coli IAI1 [3]; 5 µM): 1.13; fold change of Putrescine concentration (Escherichia coli IAI1 [3]; 10 µM): 0.82; fold change of Putrescine concentration (Escherichia coli IAI1 [3]; 20 µM): 0.673; fold change of Cadaverine concentration (Escherichia coli IAI1 [4]; 0.6125 µM): 1.42; fold change of Cadaverine concentration (Escherichia coli IAI1 [4]; 1.25 µM): 1.59; fold change of Cadaverine concentration (Escherichia coli IAI1 [4]; 2.5 µM): 1.98; fold change of Cadaverine concentration (Escherichia coli IAI1 [4]; 5 µM): 1.94; fold change of Cadaverine concentration (Escherichia coli IAI1 [4]; 10 µM): 1.25; fold change of Cadaverine concentration (Escherichia coli IAI1 [4]; 20 µM): 0.41; growth (Escherichia coli IAI1 [5]; 0.6125 µM): 0.872; growth (Escherichia coli IAI1 [5]; 1.25 µM): 0.904; growth (Escherichia coli IAI1 [5]; 2.5 µM): 0.925; growth (Escherichia coli IAI1 [5]; 5 µM): 1.05; growth (Escherichia coli IAI1 [5]; 10 µM): 0.764; growth (Escherichia coli IAI1 [5]; 20 µM): -0.0235
CC[C@@]1([C@@H]2O[C@@H]([C@H]3O[C@@](O)(CO)[C@H](C)C[C@@H]3C)C[C@@H]2C)CC[C@H]([C@]2(C)CC[C@]3(C[C@H](O)[C@@H](C)[C@@H]([C@@H](C)[C@@H](OC)[C@H](C)C(=O)O)O3)O2)O1 [Monensin sodium salt],0.986,0.919,0.785,0.555,0.39,0.267,0.907,0.829,0.712,0.829,0.664,0.516,
CCn1cc(C(=O)O)c(=O)c2cc3c(cc21)OCO3 [Oxolinic acid],0.975,1.03,1.13,0.788,0.446,0.0475,1.04,0.931,1.05,0.775,0.806,-0.028,
CN(C)[C@@H]1C(=O)C(C(N)=O)=C(O)[C@@]2(O)C(=O)C3=C(O)c4c(O)cccc4[C@@](C)(O)[C@H]3[C@H](O)[C@@H]12 [Oxytetracycline dihydrate],,,,,,,,,,,,,fold change of Tryptamine concentration ([6]; 0.6125 µM): 1.13; fold change of Tryptamine concentration ([6]; 1.25 µM): 1.31; fold change of Tryptamine concentration ([6]; 2.5 µM): 1.69; fold change of Tryptamine concentration ([6]; 5 µM): 2.71; fold change of Tryptamine concentration ([6]; 10 µM): 2.8; fold change of Tryptamine concentration ([6]; 20 µM): 2.82; fold change of 2-Phenylethylamine concentration ([7]; 0.6125 µM): 0.956; fold change of 2-Phenylethylamine concentration ([7]; 1.25 µM): 1.13; fold change of 2-Phenylethylamine concentration ([7]; 2.5 µM): 1.34; fold change of 2-Phenylethylamine concentration ([7]; 5 µM): 2.06; fold change of 2-Phenylethylamine concentration ([7]; 10 µM): 2.02; fold change of 2-Phenylethylamine concentration ([7]; 20 µM): 2.08; growth ([8]; 0.6125 µM): 0.833; growth ([8]; 1.25 µM): 0.83; growth ([8]; 2.5 µM): 0.68; growth ([8]; 5 µM): 0.594; growth ([8]; 10 µM): 0.414; growth ([8]; 20 µM): 0.356
CC(C)(c1cc(Br)c(O)c(Br)c1)c1cc(Br)c(O)c(Br)c1 [TBBPA],1.18,1.18,1.18,1.27,0.379,0.0168,1.09,1.16,1.25,1.25,0.452,-0.0298,
CS(=O)(=O)c1ccc([C@@H](O)[C@@H](CO)NC(=O)C(Cl)Cl)cc1 [Thiamphenicol],,,,,,,,,,,,,fold change of Tryptamine concentration ([6]; 0.6125 µM): 1.04; fold change of Tryptamine concentration ([6]; 1.25 µM): 0.877; fold change of Tryptamine concentration ([6]; 2.5 µM): 0.535; fold change of Tryptamine concentration ([6]; 5 µM): 0.443; fold change of Tryptamine concentration ([6]; 10 µM): 0.342; fold change of Tryptamine concentration ([6]; 20 µM): 0.267; fold change of 2-Phenylethylamine concentration ([7]; 0.6125 µM): 1.16; fold change of 2-Phenylethylamine concentration ([7]; 1.25 µM): 1.23; fold change of 2-Phenylethylamine concentration ([7]; 2.5 µM): 0.61; fold change of 2-Phenylethylamine concentration ([7]; 5 µM): 0.471; fold change of 2-Phenylethylamine concentration ([7]; 10 µM): 0.3; fold change of 2-Phenylethylamine concentration ([7]; 20 µM): 0.329; growth ([8]; 0.6125 µM): 0.84; growth ([8]; 1.25 µM): 0.789; growth ([8]; 2.5 µM): 0.797; growth ([8]; 5 µM): 0.686; growth ([8]; 10 µM): 0.57; growth ([8]; 20 µM): 0.38
CO[C@H]1C[C@H](O[C@H]2[C@H](C)[C@@H](O[C@@H]3O[C@H](C)C[C@H](N(C)C)[C@H]3OC(C)=O)[C@@H](C)C[C@@]3(CO3)C(=O)[C@H](C)[C@@H](OC(C)=O)[C@@H](C)[C@@H](C)OC(=O)[C@@H]2C)O[C@@H](C)[C@@H]1OC(C)=O [Troleandomycin],1.07,1.17,1.21,1.21,0.983,0.344,1.05,1.01,0.886,0.87,0.89,0.236,
